Where two headings read alike, the source gives them in different places. Marks after values point to notes of the source that are not given here. Ends that are not written are not given here.
Experiments:
Type in all cases: cell-based
Details in all cases: 72 h
[1] = test system: human acute non-T non-B lymphocytic leukemia cells Reh
Method: (§1) Human pancreatic cancer, hepatocellular carcinoma, colorectal cancer, ovarian cancer, cervical cancer, bladder cancer, melanoma, glioblastoma, neuroblastoma, glioma, osteosarcoma, myeloma, lymphoma, hematologic malignancies, and cholangiocarcinoma cells were cultured in an incubator at 37° C. with 5% CO2 until the density reached 90%, then digested and collected with trypsin, resuspended in a culture medium, and counted under a microscope; the cell concentration was adjusted to about 1.0×10^5 cells/mL; and the cell suspension was inoculated into a 96-well plate, with 100 μL per well, and incubated overnight in an incubator at 37° C. with 5% CO2. After the cells were completely attached to the wall, 100 μL of micropeptides MIAC with concentrations of 50 μM, 100 μM and 200 μM were added to form an administration group; and a culture medium without any medicament was used as a negative control group. After continuing incubation for 72 h, 100 μL of CCK8 was added to each well of the 96-well plate for dissolving. The absorbance OD was measured at a detection wavelength of 450 nm with a microplate reader, and the proliferation inhibition (PI) was calculated using the formula of PI (%)=1-administration group/negative control group. The experiment was repeated 3 times independently, the results were expressed as Mean±SD, and a statistical T test was performed, where *P<0.05 indicated a significant difference and **P<0.01 indicated an extremely significant difference.

[2] = test system: human cervical cancer cells Hela
Method: as §1

[3] = test system: human cholangiocarcinoma cells QBC939
Method: as §1

[4] = test system: human colon cancer cells HCT-116
Method: as §1

[5] = test system: human colon cancer cells LOVO
Method: as §1

[6] = test system: human colon cancer cells SW480
Method: as §1

[7] = test system: human diffuse large B-cell lymphoma cells OCI-LY10
Method: as §1

[8] = test system: human diffuse large B-cell lymphoma cells U2932
Method: as §1

[9] = test system: human diffuse large B-cell lymphoma cells WSU-DLCL2
Method: as §1

[10] = test system: human glioma cells SHG-44
Method: as §1

[11] = test system: human hepatocellular carcinoma cells QGY-7701
Method: as §1

[12] = test system: human lymphoma cells Raji
Method: as §1

[13] = test system: human malignant melanoma cells A375
Method: as §1

[14] = test system: human malignant melanoma cells M14
Method: as §1

[15] = test system: human mantle cell lymphoma cells JeKo-1
Method: as §1

[16] = test system: human myeloid leukemia cells HL60
Method: as §1

[17] = test system: human myeloma cells ARP-1
Method: as §1

[18] = test system: human neuroblastoma cells SH-SY5Y
Method: as §1

[19] = test system: human osteosarcoma cells MG-63
Method: as §1

[20] = test system: human osteosarcoma cells U-2OS
Method: as §1

[21] = test system: human ovarian cancer cells A2780
Method: as §1

[22] = test system: human pancreatic cancer cells Aspc-1
Method: as §1

[23] = test system: human pancreatic cancer cells PANC-1
Method: as §1

In the case of “MERAGVPGFSPRRSSVEAKMQSTSCSVRKSSTVTAWPAVVLLLSWGQRRGG [MIAC, micropeptide inhibiting actin cytoskeleton]”, the OD ([1]; 50 μM) is reported as 0.964 ± 0.037, the OD ([1]; 100 μM) is reported as 0.687 ± 0.019** and the OD ([1]; 200 μM) is reported as 0.421 ± 0.029**. The OD ([2]; 50 μM) was 0.954 ± 0.041**, the OD ([2]; 100 μM) was 0.801 ± 0.039** and the OD ([2]; 200 μM) was 0.532 ± 0.066**. The OD ([3]; QBC939, 50 μM) was 1.13 ± 0.053, the OD ([3]; QBC939, 100 μM) was 0.757 ± 0.028** and the OD ([3]; QBC939, 200 μM) was 0.468 ± 0.045**. The OD ([4]; HCT-116, 50 μM) was 1.253 ± 0.019**, the OD ([4]; HCT-116, 100 μM) was 0.976 ± 0.038** and the OD ([4]; HCT-116, 200 μM) was 0.688 ± 0.047**. The OD ([5]; 50 μM) was 1.148 ± 0.008**, the OD ([5]; 100 μM) was 0.970 ± 0.021** and the OD ([5]; 200 μM) was 0.624 ± 0.026**. For the same sequence, the OD ([6]; SW480, 50 μM) was 0.640 ± 0.032**, the OD ([6]; SW480, 100 μM) was 0.283 ± 0.007** and the OD ([6]; SW480, 200 μM) was 0.147 ± 0.016**. For the same sequence, the OD ([7]; OCI-LY10, 50 μM) was 0.719 ± 0.028**, the OD ([7]; OCI-LY10, 100 μM) was 0.598 ± 0.033** and the OD ([7]; OCI-LY10, 200 μM) was 0.376 ± 0.019**. For the same sequence, the OD ([8]; U2932, 50 μM) was 0.426 ± 0.019**, the OD ([8]; U2932, 100 μM) was 0.275 ± 0.038** and the OD ([8]; U2932, 200 μM) was 0.167 ± 0.025**. The OD ([9]; WSU-DLCL2, 50 μM) was 0.908 ± 0.061, the OD ([9]; WSU-DLCL2, 100 μM) was 0.684 ± 0.039** and the OD ([9]; WSU-DLCL2, 200 μM) was 0.264 ± 0.056**. For the same sequence, the OD ([10]; SHG-44, 50 μM) was 1.201 ± 0.026, the OD ([10]; SHG-44, 100 μM) was 0.838 ± 0.067** and the OD ([10]; SHG-44, 200 μM) was 0.393 ± 0.021**. For the same sequence, the OD ([11]; QGY-7701, 50 μM) was 1.185 ± 0.018**, the OD ([11]; QGY-7701, 100 μM) was 0.785 ± 0.030** and the OD ([11]; QGY-7701, 200 μM) was 0.520 ± 0.019**. For the same sequence, the OD ([12]; 50 μM) was 0.964 ± 0.037, the OD ([12]; 100 μM) was 0.687 ± 0.019** and the OD ([12]; 200 μM) was 0.421 ± 0.029**. The OD ([13]; A375, 50 μM) was 1.310 ± 0.069**, the OD ([13]; A375, 100 μM) was 1.194 ± 0.043** and the OD ([13]; A375, 200 μM) was 0.911 ± 0.071**. For the same sequence, the OD ([14]; M14, 50 μM) was 1.585 ± 0.030, the OD ([14]; M14, 100 μM) was 1.046 ± 0.060** and the OD ([14]; M14, 200 μM) was 0.639 ± 0.046**. The OD ([15]; JeKo-1, 50 μM) was 1.174 ± 0.027, the OD ([15]; JeKo-1, 100 μM) was 0.820 ± 0.078** and the OD ([15]; JeKo-1, 200 μM) was 0.496 ± 0.052**. For the same sequence, the OD ([16]; HL60, 50 μM) was 1.378 ± 0.029**, the OD ([16]; HL60, 100 μM) was 0.725 ± 0.027** and the OD ([16]; HL60, 200 μM) was 0.549 ± 0.023**. For the same sequence, the OD ([17]; ARP-1, 50 μM) was 0.985 ± 0.008, the OD ([17]; ARP-1, 100 μM) was 0.692 ± 0.047** and the OD ([17]; ARP-1, 200 μM) was 0.433 ± 0.013**. The OD ([18]; 50 μM) was 1.033 ± 0.022, the OD ([18]; 100 μM) was 0.822 ± 0.108** and the OD ([18]; 200 μM) was 0.665 ± 0.011**. The OD ([19]; MG-63, 50 μM) was 1.049 ± 0.011**, the OD ([19]; MG-63, 100 μM) was 0.691 ± 0.033** and the OD ([19]; MG-63, 200 μM) was 0.365 ± 0.009**. For the same sequence, the OD ([20]; 50 μM) was 0.887 ± 0.024, the OD ([20]; 100 μM) was 0.596 ± 0.061** and the OD ([20]; 200 μM) was 0.350 ± 0.013**. For the same sequence, the OD ([21]; A2780, 50 μM) was 0.985 ± 0.046**, the OD ([21]; A2780, 100 μM) was 0.791 ± 0.067** and the OD ([21]; A2780, 200 μM) was 0.441 ± 0.018**. The OD ([22]; Aspc-1, 50 μM) was 0.939 ± 0.015, the OD ([22]; Aspc-1, 100 μM) was 0.711 ± 0.047** and the OD ([22]; Aspc-1, 200 μM) was 0.509 ± 0.019**. For the same sequence, the OD ([23]; PANC-1, 50 μM) was 1.027 ± 0.073, the OD ([23]; PANC-1, 100 μM) was 0.708 ± 0.043** and the OD ([23]; PANC-1, 200 μM) was 0.427 ± 0.02**.
